Experiment [1] has as its target T1, Avi-KRAS G12D (2-169) GTP/RAF1 RBD-3xFLAG (51-131) (Homo sapiens, UniProt P01116, G12D).
T1 construct: Avi-KRAS G12D (2-169)
Put plainly: Raf1-KRAS G12D-GTP disruption HTRF assay (Biological Example 3). The class given is binding. The note with it: KRAS G12D, GTP-loaded. As to the method: (§1) Biological Example 3: Disrupting RAS-Effector Binding HTRF Assay
(§2) A protein:protein interaction (PPI) Homogeneous Time Resolved Fluorescence (HTRF) assay was used to determine the effectiveness of compounds in disrupting KRAS protein and effector (RAF1) binding.
(§3) The HTRF assay used the following reagents and proteins: (i) 50 nM Avi-KRAS G12D (2-169) GTP/RAF1 RBD-3xFLAG (51-131): (ii) 50 nM Avi-KRAS G12C (2-169) GTP/RAF1 RBD-3xFLAG (51-131): (iii) 50 nM Avi-KRAS G12V (2-169) GTP/RAF1 RBD-3xFLAG (51-131); (iv) 50 nM Avi-KRAS WT (2-169) GTP/RAF1 RBD-3xFLAG (51-131); and (v) 75 nM 3xFLAG-RAF1 RBD (51-131)-Avi. The assay buffer included: 50 mM Tris pH 7.5 (Invitrogen, 15567-027), 100 mM NaCl (Sigma, S5150-IL), 5 mM MgCl2 (Sigma, 63069), 0.1% BSA (Sigma, A7030), 0.01% Tween 20 (Sigma, P7949), 10% DMSO (Cell Signaling, 12611). The bead buffer included: 50 mM Tris pH 7.5 (Invitrogen, 15567-027), 0.01% Tween 20 (Sigma, P7949). An assay volume of 20 μL was used in a 384 well plate-low volume format. Compound titration: 30-0.005 μM, 3x dilution series.
(§4) The HTRF assay employed the following protocol:
(§5) Compounds were dispensed in assay plate (384-well, Grenier Bio-One #784075) using Echo (model 555) with dose response settings: 200 nL final volume, titration from 30 μM as a 10-point dilution series. Proteins and HTRF reagents were mixed and dispensed onto plates, 20 μL per well, and then incubated for 1 h at room temperature, with 700 rpm shaking.
(§6) Plates were analyzed on an Envision plate reader using the following setting: Excitation 320 nm, Bandwidth 75 nm; Emission 615 nm, Bandwidth 85 nm; Gain 100%; Flashes 100; Lag 60 μs. Data was reported as percentage of activity, with DMSO as 100%. Data was plotted and analyzed using Prism 8.
(§7) The biochemical Raf1-KRAS G12D/G12V/G12C/WT-GTP disruption assay IC50 of selected compounds described herein are shown in Table 12.
On the technique in general: TR-FRET usually uses a lanthanide donor and a delayed reading to cut background.

In experiment [2] the target is T2, Avi-KRAS G12V (2-169) GTP/RAF1 RBD-3xFLAG (51-131) (Homo sapiens, UniProt P01116, G12V).
T2 construct: Avi-KRAS G12V (2-169)
The experiment is described as follows: Raf1-KRAS G12V-GTP disruption HTRF assay (Biological Example 3). The format is binding. The note with it: KRAS G12V, GTP-loaded. As to the method: as §1, §2, §3, §4, §5, §6, §7

Experiment [3] deals with T3, Avi-KRAS G12C (2-169) GTP/RAF1 RBD-3xFLAG (51-131) (Homo sapiens, UniProt P01116, G12C).
T3 construct: Avi-KRAS G12C (2-169)
Put plainly: Raf1-KRAS G12C-GTP disruption HTRF assay (Biological Example 3). The format is binding. The following applies: KRAS G12C, GTP-loaded. The procedure:
as §1, §2, §3, §4, §5, §6, §7

The subject of another experiment is GP2d cells (KRAS G12D). Put plainly: Cell-based pERK HTRF assay in GP2d cell (Biological Example 2). The note with it: GP2d (KRAS G12D) cells. In short, it runs like this: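 GP2d (KRAS G12D) cells were plated in DMEM/10% FBS and treated the next day for 60 min with compounds. Dosing used 9-point half-log series starting at 1 μM or 100 nM in 0.25% DMSO. Lysates were read by HTRF pERK (d2/Eu cryptate antibodies) after 4–24 h at room temperature, with excitation at 320 nm and emission at 615 nm.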

In experiment [4] the target is T4, Avi-KRAS WT (2-169) GTP/RAF1 RBD-3xFLAG (51-131) (Homo sapiens, UniProt P01116).
T4 construct: Avi-KRAS WT (2-169)
The experiment is described as follows: Raf1-KRAS WT-GTP disruption HTRF assay (Biological Example 3). The following applies: KRAS WT, GTP-loaded. The class given is binding. The procedure: as §1, §2, §3, §4, §5, §6, §7

For a further experiment, the system named is SW620 cells (KRAS G12V). Put plainly: Cell-based pERK HTRF assay in SW620 cell (Biological Example 4). In short, it runs like this: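 In SW620 cells grown in RPMI with 10% FBS, a 4 h compound treatment (0.25% DMSO, 9-point curve from 1 μM) preceded lysis. Phospho-ERK levels were then read by time-resolved FRET at 615 nm emission.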
The mark [5] stands for this setting: Homo sapiens, SW-620, SW620 (KRAS G12V) cells.

T1 sequence (P01116 2-169 isoform P01116-2 G12D): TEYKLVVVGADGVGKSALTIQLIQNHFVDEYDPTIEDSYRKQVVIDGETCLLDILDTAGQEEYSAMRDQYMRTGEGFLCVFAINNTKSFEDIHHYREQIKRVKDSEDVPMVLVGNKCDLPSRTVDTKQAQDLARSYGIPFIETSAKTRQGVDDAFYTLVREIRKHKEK
T2 sequence (P01116 2-169 isoform P01116-2 G12V): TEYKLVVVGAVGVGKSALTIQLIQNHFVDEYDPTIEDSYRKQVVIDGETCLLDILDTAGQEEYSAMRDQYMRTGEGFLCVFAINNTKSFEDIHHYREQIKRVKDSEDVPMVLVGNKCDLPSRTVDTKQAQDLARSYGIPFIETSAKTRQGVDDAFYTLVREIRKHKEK
T3 sequence (P01116 2-169 isoform P01116-2 G12C): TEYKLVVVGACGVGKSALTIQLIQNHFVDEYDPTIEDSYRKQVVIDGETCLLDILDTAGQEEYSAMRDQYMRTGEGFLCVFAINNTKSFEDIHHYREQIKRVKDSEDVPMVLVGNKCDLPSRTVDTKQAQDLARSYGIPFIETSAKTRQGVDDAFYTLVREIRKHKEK
T4 sequence (P01116 2-169 isoform P01116-2): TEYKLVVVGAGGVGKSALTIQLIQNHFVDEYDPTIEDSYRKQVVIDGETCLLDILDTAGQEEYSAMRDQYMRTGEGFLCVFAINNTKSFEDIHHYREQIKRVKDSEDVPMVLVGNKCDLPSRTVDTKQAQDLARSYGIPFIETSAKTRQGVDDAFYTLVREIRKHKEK

As for `CN(Cc1ccccc1)c1nc(OC[C@@]23CCCN2C[C@H](F)C3)nc2c(F)c(-c3ccc(F)c4sc(N)c(C#N)c34)c(C(F)(F)F)cc12` (atropisomer, axis not shown) [Compound 890], the IC50 was above 10000 nM in experiment [1]; above 10000 nM in experiment [2]; above 10000 nM in experiment [3]; 100 to 1000 nM in the experiment on GP2d cells (KRAS G12D) (GP2d); above 10000 nM in experiment [4]; 100 to 1000 nM in the experiment on SW620 cells (KRAS G12V) (setting [5]).
For `CN(Cc1ccnnc1)c1nc(OC[C@@]23CCCN2C[C@H](F)C3)nc2c(F)c(-c3ccc(F)c4sc(N)c(C#N)c34)c(C(F)(F)F)cc12` (atropisomer, axis not shown) [Compound 896], the IC50 in experiment [1] was 100 to 1000 nM; in experiment [2] it was 1000 to 10000 nM; in experiment [3], 1000 to 10000 nM; in the experiment on GP2d cells (KRAS G12D) (GP2d), below 100 nM; in experiment [4] it was 1000 to 10000 nM; in the experiment with SW620 cells (KRAS G12V) (setting [5]), below 100 nM.
Turning to `CCN(c1nc(OC[C@@]23CCCN2C[C@H](F)C3)nc2c(F)c(-c3ccc(F)c4sc(N)c(C#N)c34)c(C(F)(F)F)cc12)[C@@H]1CCN(c2ccccn2)C1` [Compound 945], the IC50 in experiment [1] is 1000 to 10000 nM; in experiment [2], above 10000 nM; in experiment [3], above 10000 nM; in the experiment with GP2d cells (KRAS G12D) (GP2d) it was below 100 nM; in experiment [4] it was above 10000 nM; in the experiment with SW620 cells (KRAS G12V) (setting [5]), below 100 nM.
As for `CN(c1nc(OCC23CCCN2CC(F)C3)nc2c(F)c(-c3ccc(F)c4sc(N)c(C#N)c34)c(C(F)(F)F)cc12)C1CCc2ccncc21` (stereo not shown) [Compound 962], the IC50 in experiment [1] was 1000 to 10000 nM; in experiment [2], above 10000 nM; in experiment [3], above 10000 nM; in the experiment with GP2d cells (KRAS G12D) it was below 100 nM; in experiment [4] it was 1000 to 10000 nM; in the experiment with SW620 cells (KRAS G12V) (SW620 (KRAS G12V) cells) it was below 100 nM.
Consider `CCN(c1nc(OC[C@@]23CCCN2C[C@H](F)C3)nc2c(F)c(-c3ccc(F)c4sc(N)c(C#N)c34)c(C(F)(F)F)cc12)C1C[C@H](C)N(C(=O)C2CC2)C1` (stereo partly shown) [Compound 909], for which the IC50 in experiment [1] is 100 to 1000 nM; in experiment [2], 100 to 1000 nM; in experiment [3] it was 100 to 1000 nM; in the experiment with GP2d cells (KRAS G12D), below 100 nM; in experiment [4], 100 to 1000 nM; with SW620 cells (KRAS G12V) (SW620 (KRAS G12V) cells), below 100 nM.
Consider `CCN(c1nc(OC[C@@]23CCCN2C[C@H](F)C3)nc2c(F)c(-c3ccc(F)c4sc(N)c(C#N)c34)c(C(F)(F)F)cc12)[C@H]1CC[C@H](C(=O)N(C)C)C1` (atropisomer, axis not shown) [Compound 660], for which the IC50 in experiment [1] was 100 to 1000 nM; in experiment [2], 1000 to 10000 nM; in experiment [3], 1000 to 10000 nM; in the experiment on GP2d cells (KRAS G12D) (GP2d), below 100 nM; in experiment [4], 100 to 1000 nM; in the experiment with SW620 cells (KRAS G12V) (setting [5]), below 100 nM.
Turning to `CCN(c1nc(OC[C@@H]2C[C@@H](OC)CN2C)nc2c(F)c(-c3ccc(F)c4sc(N)c(C#N)c34)c(C(F)(F)F)cc12)[C@H]1CCN(C(=O)OC)C1` [Compound 871], the half-inhibitory concentration (IC50) in experiment [1] is 100 to 1000 nM; in experiment [2], 1000 to 10000 nM; in experiment [3], 1000 to 10000 nM; in the experiment on GP2d cells (KRAS G12D) (GP2d), below 100 nM; in experiment [4], 1000 to 10000 nM; in the experiment with SW620 cells (KRAS G12V) (setting [5]), below 100 nM.
As to `CCN(c1nc(OC[C@@]23CCCN2C[C@H](F)C3)nc2c(F)c(-c3ccc(F)c4sc(N)c(C#N)c34)c(C(F)(F)F)cc12)[C@H]1CCN(C(=O)c2cccs2)C1` (atropisomer, axis not shown) [Compound 920], the IC50 in experiment [1] is 100 to 1000 nM; in experiment [2], 100 to 1000 nM; in experiment [3], 100 to 1000 nM; in the experiment with GP2d cells (KRAS G12D) (GP2d) it was below 100 nM; in experiment [4], 100 to 1000 nM; in the experiment with SW620 cells (KRAS G12V) (setting [5]), below 100 nM.
In the case of `CCN(c1nc(OC[C@@]23CCCN2C[C@H](F)C3)nc2c(F)c(-c3ccc(F)c4sc(N)c(C#N)c34)c(C(F)(F)F)cc12)[C@H]1C[C@H](C(=O)N(C)C)C1` (atropisomer, axis not shown) [Compound 950], the IC50 in experiment [1], in experiment [2], in experiment [3] and in experiment [4] was 100 to 1000 nM in each case.

What is called IC50 is the concentration that inhibits the measured activity by half. Higher therefore signals lower potency.

For the origin of these results see patent US20260042764A1, “COMPOSITIONS AND METHODS FOR INHIBITION OF KRAS” (TheRas, Inc., priority 2022, published 2026).
